Laboratory results published in publication PMC4754331, “Programming of metabolic effects in C57BL/6JxFVB mice by in utero and lactational exposure to perfluorooctanoic acid” (Archives of Toxicology, 2015).

Experiments:
C57BL/6JxFVB hybrid mice [1] = assay: Serum lipids and glucose; settings: for Emax: Mus musculus
C57BL/6JxFVB hybrid mice [2] = assay: Histopathology of liver; type: in vivo; settings: for Liver nuclear dysmorphology: count of individuals with Grade 0 / Liver nuclear dysmorphology: count of individuals with Grades 1, 2: p = 0.06 vs control
C57BL/6JxFVB hybrid mice [3] = assay: Offspring body weight and growth after perinatal exposure; type: in vivo; design: key to Time of effect: P: permanent effect on body weight throughout study; D: delayed (late onset) of effect; T: transient effect; E: effect observed during treatment; settings: for Emax: Mus musculus
Procedure: PFOA was obtained as sodium perfluoro-n-octanoate (PFOA-Na; CAS No. 335-95-5, purity >99 %) and kindly provided by Wellington Laboratories Inc., Ontario, Canada. PFOA-Na was dissolved in acetone and mixed with the diet (NIH-07, Research Diet Services, Wijk bij Duurstede, The Netherlands). Thereafter, acetone was allowed to evaporate, and this master mixture was serially diluted with a factor 3–3.3 by adding NIH-07, and afterward, the diet was pelleted. In this way, seven diet groups and a control NIH-07 (blank acetone was added) were obtained, aiming at concentrations of 0, 0.017, 0.056, 0.17, 0.56, 1.7, 5.6 and 17 mg/kg PFOA in feed, which corresponded to 0, 3, 10, 30, 100, 300, 1000 and 3000 µg/kg bw based on an average food consumption of 4.5 g per mouse (average body weight of 25 g) per day. PFOA concentrations in test diets were confirmed by isotope dilution liquid chromatography mass spectrometry after extraction with methanol (8402, JT Baker, Deventer the Netherlands) and a cleanup with carbon solid phase extraction (ENVI Carb, 57210-U, Supelco, Zwijndrecht, the Netherlands). Actual PFOA concentrations in the food were 15–30 % lower than the nominal values. The non-purified soy-based NIH-07 was chosen because it was originally designed to optimize gestation, lactation and growth of rodents, and avoiding natural phytoestrogens in the diet may have confounding effects (Ruhlen et al. [2008]). Estrogenic and anti-estrogenic activity for this diet was previously analyzed to be low and absent, respectively (van Esterik et al. [2014]).
A high fat diet (D12451, Research Diet Services, Wijk bij Duurstede, The Netherlands), containing 45 kcal % fat (lard) compared with 15 kcal % fat in the NIH-07 diet, was given to all F1 mice during the final weeks of the study (21–28 weeks of age).
After an acclimatization period of 1 week, female F0 mice were fed experimental diets explained above starting 2 weeks before mating and continued during mating (1 week), gestation (3 weeks) and lactation (3 weeks). Each dose group had six F0 females, which were mated three by three with two F0 males for each dose group. […] For every dose group, on average 9 mice per sex (range 6–10) were included for follow-up through juvenile and adult stages, selecting pups proportionally from available litters. F1 males were single-housed, and F1 females were housed in pairs from the same litter in standard Macrolon type I cages. Body weight was measured at postnatal day (PND) 4, 7, 14 and 21 and weekly from 5 weeks of age continuing until the end of the study. Food consumption could not be recorded reliably due to high spillage.
Growth was calculated by dividing body weight of subsequent weeks by body weight at week 5, i.e., at the start of the F1 follow-up.

[4] = cited from earlier work
C57BL/6JxFVB hybrid mice [5] = assay: Tibia composition/function by pQCT; type: in vivo; settings: for Emax: Mus musculus
[6] = males, 300 and 3000 µg PFOA/kg body weight/day combined, p = 0.07 vs control
[7] = C57BL/6JxFVB, 3-10-30-100-300-1000-3000 µg/kg bw/d, diet, 2w pre-mating-PND21, this study
[8] = F1 females, CES 5 %, high fat diet

In the case of `O=C(O)C(F)(F)C(F)(F)C(F)(F)C(F)(F)C(F)(F)C(F)(F)C(F)(F)F` [PFOA, Perfluorooctanoic acid], the “Serum triglycerides: BMDU/BMDL” value (C57BL/6JxFVB hybrid mice [1]; F1 females) is reported as 100, the “Serum cholesterol: BMDL” value (C57BL/6JxFVB hybrid mice [1]; F1 females, CES 5 %) is reported as 402 µg/kg bw/d and the “Serum cholesterol: BMDU” value (C57BL/6JxFVB hybrid mice [1]; F1 females, CES 5 %) is reported as 1284 µg/kg bw/d. For the same compound, the “Serum triglycerides: BMDL” value (C57BL/6JxFVB hybrid mice [1]; F1 females, CES 5 %) was 6.2 µg/kg bw/d, the “Serum triglycerides: BMDU” value (C57BL/6JxFVB hybrid mice [1]; F1 females, CES 5 %) was 623 µg/kg bw/d and the Emax (C57BL/6JxFVB hybrid mice [1]; read-out: Serum cholesterol: max effect size) was -20%. The Emax (C57BL/6JxFVB hybrid mice [1]; read-out: Serum triglycerides: max effect size) was -27%, the “Liver eosinophilic alteration: count of individuals with Grades 0, 1” value (C57BL/6JxFVB hybrid mice [2]; females, 300 and 3000 combined) was 11 and the “Liver eosinophilic alteration: count of individuals with Grades 2, 3” value (C57BL/6JxFVB hybrid mice [2]; females, 300 and 3000 combined) was 8. For the same compound, the “Liver fatty change: count of individuals with Grade 0” value (C57BL/6JxFVB hybrid mice [2]; females, 300 and 3000 combined) was 17, the “Liver fatty change: count of individuals with Grades 1, 2, 3” value (C57BL/6JxFVB hybrid mice [2]; females, 300 and 3000 combined) was 2 and the “Liver nuclear dysmorphology: count of individuals with Grade 0” value (C57BL/6JxFVB hybrid mice [2]; females, 300 and 3000 combined) was 12. For the same compound, the “Liver nuclear dysmorphology: count of individuals with Grades 1, 2” value (C57BL/6JxFVB hybrid mice [2]; females, 300 and 3000 combined) was 7, the “Liver eosinophilic alteration: count of individuals with Grade 0” value (C57BL/6JxFVB hybrid mice [2]; [6]) was 14 and the “Liver eosinophilic alteration: count of individuals with Grades 1, 2” value (C57BL/6JxFVB hybrid mice [2]; [6]) was 6. For the same compound, the “Liver fatty change: count of individuals with Grade 0” value (C57BL/6JxFVB hybrid mice [2]; males, 300 and 3000 combined) was 16, the “Liver fatty change: count of individuals with Grades 1, 2, 3, 4” value (C57BL/6JxFVB hybrid mice [2]; males, 300 and 3000 combined) was 4 and the “Liver nuclear dysmorphology: count of individuals with Grade 0” value (C57BL/6JxFVB hybrid mice [2]; males, 300 and 3000 combined) was 13. The “Liver nuclear dysmorphology: count of individuals with Grades 1, 2” value (C57BL/6JxFVB hybrid mice [2]; males, 300 and 3000 combined) was 7, the “Endpoint bw (age) F” value (C57BL/6JxFVB hybrid mice [3]; [7]) was “↓ PND4–w27” and the “Endpoint bw (age) M” value (C57BL/6JxFVB hybrid mice [3]; [7]) was “↓ PND4–w23”. The Time of effect (C57BL/6JxFVB hybrid mice [3]; C57BL/6JxFVB, this study, in males not observed during final 2 weeks (w24–25) under high fat diet) was “P^d”, the “Body weight week 21: BMDL” value (C57BL/6JxFVB hybrid mice [3]; F1 females, CES 5 %) was 1239 µg/kg bw/d and the “Body weight week 21: BMDU” value (C57BL/6JxFVB hybrid mice [3]; F1 females, CES 5 %) was 3595 µg/kg bw/d. The “Body weight week 27: BMDL” value (C57BL/6JxFVB hybrid mice [3]; [8]) was 849 µg/kg bw/d, the “Body weight week 27: BMDU” value (C57BL/6JxFVB hybrid mice [3]; [8]) was 5645 µg/kg bw/d and the “Body weight week 21: BMDL” value (C57BL/6JxFVB hybrid mice [3]; F1 males, CES 5 %) was 1024 µg/kg bw/d. The “Body weight week 21: BMDU” value (C57BL/6JxFVB hybrid mice [3]; F1 males, CES 5 %) was 3457 µg/kg bw/d, the “Growth week 25/5: BMDL” value (C57BL/6JxFVB hybrid mice [3]; F1 males, CES 5 %) was 948 µg/kg bw/d and the “Growth week 25/5: BMDU” value (C57BL/6JxFVB hybrid mice [3]; F1 males, CES 5 %) was 2383 µg/kg bw/d. The Emax (C57BL/6JxFVB hybrid mice [3]; F1 females, read-out: Body weight week 21: max effect size) was -8%, the Emax (C57BL/6JxFVB hybrid mice [3]; F1 females, read-out: Body weight week 27: max effect size) was -9.1% and the Emax (C57BL/6JxFVB hybrid mice [3]; F1 females, read-out: Growth week 27/5: max effect size) was -8.6%. The Emax (C57BL/6JxFVB hybrid mice [3]; F1 males, read-out: Body weight week 21: max effect size) was -9.1%, the Emax (C57BL/6JxFVB hybrid mice [3]; F1 males, read-out: Growth week 25/5: max effect size) was 11% and the “Body weight PND4: CED” value (C57BL/6JxFVB hybrid mice [3]; females, CES −0.05, Fig. 2c) was 0.0628 µg/kg body weight/day. For the same compound, the “Body weight PND4: CEDLbt” value (C57BL/6JxFVB hybrid mice [3]; females, CES −0.05, Fig. 2c) was 2.004e−08 µg/kg body weight/day, the “Body weight PND4: CEDUbt” value (C57BL/6JxFVB hybrid mice [3]; females, CES −0.05, Fig. 2c) was 42.23 µg/kg body weight/day and the “Body weight week 27: CED” value (C57BL/6JxFVB hybrid mice [3]; females, CES −0.05, Fig. 2d) was 1560 µg/kg body weight/day. The “Body weight week 27: CEDLbt” value (C57BL/6JxFVB hybrid mice [3]; females, CES −0.05, Fig. 2d) was 849.1 µg/kg body weight/day, the “Body weight week 27: CEDUbt” value (C57BL/6JxFVB hybrid mice [3]; females, CES −0.05, Fig. 2d) was 5645 µg/kg body weight/day and the “Body weight from PND4 until adulthood (week 21)” value (C57BL/6JxFVB hybrid mice [3]; females, standard diet) was “dose-dependently decreased”. For the same compound, the “Body weight at PND4” value (C57BL/6JxFVB hybrid mice [3]; males) was “dose-dependent decrease”, the “Body weight PND4: CEDLbt” value (C57BL/6JxFVB hybrid mice [3]; males, CES −0.05, Fig. 2a) was 1e−12 µg/kg body weight/day and the “Body weight PND4: CEDUbt” value (C57BL/6JxFVB hybrid mice [3]; males, CES −0.05, Fig. 2a) was 42.23 µg/kg body weight/day. For the same compound, the “Body weight PND4: CED” value (C57BL/6JxFVB hybrid mice [3]; males, CES −0.05, Fig. 2a, unit from legend) was 0.0039 µg/kg body weight/day, the “Body weight in weeks 22 and 23” value (C57BL/6JxFVB hybrid mice [3]; males, high fat diet, data not shown) was “dose-dependent decrease” and the “Elimination half-life in adult mice” value ([4]; adult mice, ref Lau et al. [2006]) was 17 days. The “Time to steady-state level in serum of mice” value ([4]; ref Lau et al. [2006]) was at most 1 week, the “Lowering of levels in offspring after maternal exposure was stopped” value ([4]; within 6 weeks, ref Wolf et al. ([2007])) was 40 times and the “Tibia ability to resist torsion: BMDL” value (C57BL/6JxFVB hybrid mice [5]; F1 females, CES 5 %) was 917 µg/kg bw/d. For the same compound, the “Tibia ability to resist torsion: BMDU” value (C57BL/6JxFVB hybrid mice [5]; F1 females, CES 5 %) was 10,316 µg/kg bw/d, the “Tibia bending strength: BMDL” value (C57BL/6JxFVB hybrid mice [5]; F1 females, CES 5 %) was 888 µg/kg bw/d and the “Tibia bending strength: BMDU” value (C57BL/6JxFVB hybrid mice [5]; F1 females, CES 5 %) was 3371 µg/kg bw/d. The “Tibia cortical density: BMDL” value (C57BL/6JxFVB hybrid mice [5]; F1 females, CES 5 %) was 2866 µg/kg bw/d, the “Tibia cortical density: BMDU” value (C57BL/6JxFVB hybrid mice [5]; F1 females, CES 5 %) was 6949 µg/kg bw/d and the “Tibia trabecular area: BMDL” value (C57BL/6JxFVB hybrid mice [5]; F1 females, CES 5 %) was 914 µg/kg bw/d. For the same compound, the “Tibia trabecular area: BMDU” value (C57BL/6JxFVB hybrid mice [5]; F1 females, CES 5 %) was 3037 µg/kg bw/d, the “Tibia cortical density: BMDL” value (C57BL/6JxFVB hybrid mice [5]; F1 males, CES 5 %) was 2635 µg/kg bw/d and the “Tibia cortical density: BMDU” value (C57BL/6JxFVB hybrid mice [5]; F1 males, CES 5 %) was 27,520 µg/kg bw/d. It also gave an Emax (C57BL/6JxFVB hybrid mice [5]; F1 females, read-out: Tibia ability to resist torsion: max effect size) of -8.3%, an Emax (C57BL/6JxFVB hybrid mice [5]; F1 females, read-out: Tibia bending strength: max effect size) of -9.9% and an Emax (C57BL/6JxFVB hybrid mice [5]; F1 females, read-out: Tibia cortical density: max effect size) of -3.7%. The Emax (C57BL/6JxFVB hybrid mice [5]; F1 females, read-out: Tibia trabecular area: max effect size) was -10% and the Emax (C57BL/6JxFVB hybrid mice [5]; F1 males, read-out: Tibia cortical density: max effect size) was -3.4%.
